Assay [1] concerns Staphylococcus aureus. Description: Antibacterial activity against methicillin resistance Staphylococcus aureus assessed as reduction in biofilm formation at 1/2 times MIC incubated 24 hrs by crystal violet staining based microplate reader analysis. It counts as functional, organism-based.
The subject of assay [2] is Staphylococcus aureus. As to the kind of experiment: Antibacterial activity against quinolone-resistant Staphylococcus aureus CCARM3505 assessed as inhibition of bacterial growth incubated for 18 hrs by microdilution method. The format is functional.
Another assay has as its system Bacillus cereus. As to the kind of experiment: Antibacterial activity against Bacillus cereus ATCC27348 assessed as inhibition of bacterial growth incubated for 18 hrs by microdilution method. It counts as functional. In general terms: Broth dilution looks for growth in wells or tubes with falling amounts of substance.
Assay [3] addresses T1, L-2,3-diaminopropanoate--citrate ligase (Staphylococcus aureus (strain NCTC 8325 / PS 47), UniProt Q2G1M9).
T1 sequence (Q2G1M9 whole entry): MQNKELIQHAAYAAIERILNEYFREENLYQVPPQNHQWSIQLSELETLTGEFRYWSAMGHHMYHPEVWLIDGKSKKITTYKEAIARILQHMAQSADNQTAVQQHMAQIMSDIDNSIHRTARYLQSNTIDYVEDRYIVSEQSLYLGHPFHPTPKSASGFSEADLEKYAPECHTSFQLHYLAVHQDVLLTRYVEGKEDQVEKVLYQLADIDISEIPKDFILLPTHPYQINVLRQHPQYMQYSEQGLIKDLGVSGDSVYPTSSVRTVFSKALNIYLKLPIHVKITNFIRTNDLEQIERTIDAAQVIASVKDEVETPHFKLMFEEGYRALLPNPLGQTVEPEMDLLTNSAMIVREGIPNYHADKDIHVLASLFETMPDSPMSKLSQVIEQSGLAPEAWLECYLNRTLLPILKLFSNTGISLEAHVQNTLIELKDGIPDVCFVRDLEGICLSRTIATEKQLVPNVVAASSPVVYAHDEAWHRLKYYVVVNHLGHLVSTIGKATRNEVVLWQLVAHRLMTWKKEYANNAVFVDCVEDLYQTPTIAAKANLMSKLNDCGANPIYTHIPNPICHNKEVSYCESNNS
Description: Inhibition of Staphylococcus aureus SbnE incubated for 1 hr by malachite green staining based microplate reader analysis.

In assay [4] the test system is Staphylococcus aureus. As to the kind of experiment: Antibacterial activity against […] Staphylococcus aureus ATCC25923 assessed as inhibition in bacterial growth incubated for 18 hrs by microdilution method. The format is functional.
In the next assay the test system is Salmonella typhimurium. Description: Antibacterial activity against Salmonella typhimurium ATCC14028 assessed as inhibition of bacterial growth incubated for 18 hrs by microdilution method. The format is functional, Salmonella enterica subsp. enterica serovar Typhimurium. The following applies: Salmonella enterica.
Assay [5] in a line: Antibacterial activity against Bacillus subtilis ATCC6633 assessed as inhibition of bacterial growth incubated for 18 hrs by microdilution method. The format is functional, Bacillus subtilis […].
For a further assay, the system named is Escherichia coli. Description: Antibacterial activity against Escherichia coli MC1061 assessed as inhibition of bacterial growth incubated for 18 hrs by microdilution method. The format is functional.
The test system of another assay is Cell membrane. Description: Induction of membrane disruption in methicillin resistant Staphylococcus aureus CCARM3167 at MIC incubated for 30 mins PI staining based Flow cytometry.
In assay [6] the test system is Staphylococcus aureus. Description: Antibacterial activity against methicillin resistant Staphylococcus aureus CCARM3167 assessed as inhibition in bacterial growth incubated for 18 hrs by microdilution method. The format is functional.
Assay [7] concerns the target T2, L-2,3-diaminopropanoate--citrate ligase (Staphylococcus aureus (strain NCTC 8325 / PS 47)) (UniProt Q2G1M9).
T2 sequence (whole entry): T1 sequence (Q2G1M9 whole entry)
Description: Inhibition of Staphylococcus aureus SbnE at 50 uM incubated for 1 hr by malachite green staining based microplate reader analysis relative to control.

Assay [8] concerns Staphylococcus aureus. Description: Antibacterial activity against methicillin resistance Staphylococcus aureus CCARM3167 assessed as inhibition of siderophore production at 1/4 times MIC incubated for 18 hrs by CAS liquid assay. It counts as functional, organism-based.
Assay [9] relates to Staphylococcus aureus. Description: Antibacterial activity against Staphylococcus aureus ATCC25923 assessed as inhibition of siderophore production at 1/2 times MIC incubated for 18 hrs by CAS liquid assay. The format is functional, organism-based.

≈ marks a conversion by molar mass, not a printed value. Calls of active or inactive are those of the source.

Consider `CC(C)C[C@H]([C@H](O)CCNc1cccc(C(F)(F)F)c1)[C@@H](O)c1cc(O)cc(O)c1`, for which the outcome with Staphylococcus aureus [1] and in the assay on Cell membrane was Active. For the same compound, the MIC (as a rule, the smallest concentration in the dilution series that meets the test's criterion for growth inhibition) in the assay on Staphylococcus aureus [2] was 8 µg/mL (≈ 18.7 µM); in the assay with Bacillus cereus, 8 µg/mL (≈ 18.7 µM); in the assay on Staphylococcus aureus [4], 8 µg/mL (≈ 18.7 µM); with Salmonella typhimurium, more than 256 µg/mL; in assay [5] it was 64 µg/mL (≈ 150 µM); in the assay with Escherichia coli, more than 256 µg/mL. For the same compound, in the assay with Staphylococcus aureus [6], the MIC is 16 µg/mL (≈ 37.4 µM). Besides, the midpoint of inhibition in [3], the IC50, lay at 6.12 µM. For the same compound, the inhibition (usually the percentage by which the read-out fell short of the control) in assay [7] is 71.1%.
Regarding `Cc1ccc(NCC[C@@H](O)[C@@H](CC(C)C)[C@@H](O)c2cc(O)cc(O)c2)c(Cl)c1`, the result in the assay on Staphylococcus aureus [1] and in the assay on Cell membrane was Active. For the same compound, the minimum inhibitory concentration (MIC) in the assay on Staphylococcus aureus [2] is 64 µg/mL (≈ 157 µM); with Bacillus cereus, more than 256 µg/mL; in the assay with Staphylococcus aureus [4], 16 µg/mL (≈ 39.2 µM); with Salmonella typhimurium it was more than 256 µg/mL; in assay [5] it was more than 256 µg/mL; with Escherichia coli it was more than 256 µg/mL. The MIC in the assay with Staphylococcus aureus [6] was determined as 32 µg/mL (≈ 78.4 µM). Besides, 4.12 µM corresponded to half-maximal inhibition in assay [3] (IC50). In [7], this compound returned an inhibition of 89.2%.
As to `CC(C)C[C@H]([C@H](O)C[C@H](O)C#C[C@@H](C)C[C@H](C)C[C@@H](C)COCc1ccccc1)[C@@H](O)c1cc(O)cc(O)c1`, the outcome in the assay on Staphylococcus aureus [1] and in the assay with Cell membrane was Active. The minimum inhibitory concentration (MIC) in the assay with Staphylococcus aureus [2] is 16 µg/mL (≈ 29.6 µM); in the assay on Bacillus cereus it was more than 256 µg/mL; in the assay with Staphylococcus aureus [4], 8 µg/mL (≈ 14.8 µM); in the assay on Salmonella typhimurium, more than 256 µg/mL; in assay [5], more than 256 µg/mL; in the assay on Escherichia coli, more than 256 µg/mL. For the same compound, the MIC with Staphylococcus aureus [6] worked out at 4 µg/mL (≈ 7.4 µM). For the same compound, the IC50 (in general, the point on the concentration scale where inhibition reaches its midpoint) in [3] is 5.49 µM. Moreover, in assay [7], the inhibition was 71.7%.
In assay [3], `CC(C)C[C@H]([C@H](O)CCN)[C@@H](O)c1cc(O)cc(O)c1` had an IC50 of 1.81 µM. The MIC with Staphylococcus aureus [4] and in the assay on Staphylococcus aureus [6] was more than 256 µg/mL throughout. Further, the result in the assay on Staphylococcus aureus [8] and in the assay on Staphylococcus aureus [9] was inactive. This compound gave an inhibition in assay [7] of 97.2%.
For `CCC(=O)[C@H](C)C[C@H](C)C[C@H](C)CC[C@@H](O)C[C@@H](O)[C@@H](CC(C)C)[C@@H](O)c1cc(O)cc(O)c1`, the MIC is 64 µg/mL (≈ 133 µM) in the assay with Staphylococcus aureus [2]; 256 µg/mL (≈ 533 µM) in the assay on Bacillus cereus; 256 µg/mL (≈ 533 µM) with Staphylococcus aureus [4]; more than 256 µg/mL in the assay on Salmonella typhimurium; more than 256 µg/mL in assay [5]; 64 µg/mL (≈ 133 µM) in the assay with Escherichia coli. Further, the minimum inhibitory concentration (MIC) with Staphylococcus aureus [6] is 256 µg/mL (≈ 533 µM). Further, half-maximal inhibition in assay [3] (IC50) required 14.4 µM. The outcome with Cell membrane was Active. This compound also registered an inhibition in assay [7] of 61.2%.
Regarding `C[C@@H](COCc1ccccc1)C[C@H](C)C[C@H](C)C#CC(O)C[C@@H](O)c1cc(O)cc(O)c1` (stereo partly specified), the outcome in the assay with Staphylococcus aureus [1] and in the assay with Cell membrane was Active. The minimal inhibitory concentration (MIC) was 128 µg/mL (≈ 291 µM) in the assay with Staphylococcus aureus [2]; 64 µg/mL (≈ 145 µM) in the assay on Bacillus cereus; 128 µg/mL (≈ 291 µM) in the assay on Staphylococcus aureus [4]; more than 256 µg/mL in the assay with Salmonella typhimurium; more than 256 µg/mL in assay [5]; more than 256 µg/mL with Escherichia coli. Moreover, in the assay with Staphylococcus aureus [6], the MIC was determined as 256 µg/mL (≈ 581 µM). Besides, the IC50 in [3] worked out at 8.94 µM. In [7], the inhibition is 76.4%.
`CC(C)C[C@H]([C@H](O)C[C@H](O)C#CCCCCCCOCc1ccccc1)[C@@H](O)c1cc(O)cc(O)c1`: the MIC in the assay with Staphylococcus aureus [2] was 128 µg/mL (≈ 257 µM); with Bacillus cereus it was 64 µg/mL (≈ 128 µM); in the assay on Staphylococcus aureus [4], 128 µg/mL (≈ 257 µM); with Salmonella typhimurium it was more than 256 µg/mL; in assay [5], more than 256 µg/mL; with Escherichia coli, more than 256 µg/mL. Moreover, in the assay on Staphylococcus aureus [6], the MIC amounted to 128 µg/mL (≈ 257 µM). In [3], the half-maximal inhibitory concentration (IC50) was determined as 10.2 µM. Further, in the assay on Cell membrane, the result was Active. In assay [7], this compound showed an inhibition of 81.9%.
Turning to `CC(C)C[C@H]([C@H](O)C[C@H](O)C#C[C@@H](C)C[C@@H](C)C[C@@H](C)COCc1ccccc1)[C@@H](O)c1cc(O)cc(O)c1`, the outcome in the assay on Staphylococcus aureus [1] and in the assay with Cell membrane was Active. Besides, the half-inhibitory concentration (IC50) in assay [3] was 11.4 µM. In addition, the MIC in the assay with Staphylococcus aureus [4] turned out to be 1 µg/mL (≈ 1.85 µM); in the assay on Staphylococcus aureus [6], 4 µg/mL (≈ 7.4 µM). In assay [7], this compound yielded an inhibition of 77.5%.

Values taken from ChEMBL document CHEMBL5625182, “Synthesis and antibacterial activities of baulamycin A inspired derivatives” (Eur J Med Chem, 2023).
